Among the test systems are SF-295 CNS; OVCAR-5 ovarian; PC-3 prostate; MDA-N; UACC-257 melanoma.
Test in all cases: NCI-60 cell line screen, 48 h

Here are results for 22 compounds from PubChem BioAssay (NCI).

Values joined by “and” are separate entries in the source; they are usually repeats but may differ in a detail not shown here. Identical values can stand only once.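 1) Cells in 96-well plates. 2) Compound, 48 h, 5 concentrations. 3) Linear interpolation between surrounding doses. 4) Unreached endpoint = highest concentration. GI50 = concentration required for 50% inhibition of growth. The concentration for full growth arrest is given as TGI.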 Where only a bound is given, the exact number is not on record here.

For the compound `COCN(CCC1=CCCCC1)C(=O)OC`, the TGI in the assay with SF-295 CNS, in the assay with OVCAR-5 ovarian, with PC-3 prostate, in the assay on MDA-N and in the assay on UACC-257 melanoma was above 100 µM throughout.

Consider `CC1=NNC(N)=N/C1=C\C(Sc1ccc(Cl)cc1)c1ccc([N+](=O)[O-])cc1` (stereo unspecified), for which the TGI in the assay with SF-295 CNS, in the assay with OVCAR-5 ovarian, in the assay with PC-3 prostate, in the assay on MDA-N and with UACC-257 melanoma was above 100 µM each time.

In the case of `Cc1ccc(SCC(CF)OC(C)n2cnc3c(=O)[nH]c(N)nc32)cc1` (stereo unspecified), the TGI in the assay with SF-295 CNS, with OVCAR-5 ovarian, with PC-3 prostate, in the assay with MDA-N and with UACC-257 melanoma was above 100 µM each time.

Regarding `O=C1C(CN2CCCCC2)CCC1CN1CCCCC1` (stereo unspecified), the TGI is above 46.4 µM in the assay with SF-295 CNS; 47.8 µM with OVCAR-5 ovarian; above 57.6 µM in the assay with PC-3 prostate; 22.2 µM with MDA-N; 47.1 µM in the assay with UACC-257 melanoma.

Regarding `CCN(CC)CCNc1nc2ccc([N+](=O)[O-])cc2[n+]([O-])n1`, the TGI in the assay with SF-295 CNS came to 82.1 µM; with OVCAR-5 ovarian, 31.7 µM; with PC-3 prostate, 75.3 µM; in the assay on MDA-N, 29.5 µM; with UACC-257 melanoma it was 31.2 µM.

Turning to `CSc1ccc2c(cc1=O)[C@@H](NC(=O)c1ccc(N)cc1)CCc1cc(O)c(O)c(O)c1-2`, the TGI is 39.2 µM and 46.1 µM in the assay on SF-295 CNS; 66.3 µM and > 100 µM with OVCAR-5 ovarian; above 100 µM in the assay with PC-3 prostate; > 75 µM and 54.1 µM with MDA-N; above 100 µM with UACC-257 melanoma. The GI50 in the assay on MDA-N is 23.9 µM and 5.99 µM.

Consider `CSc1ncnc2c1ncn2C1CC(Oc2ccc(C)cc2)C(COc2ccc(C)cc2)O1` (stereo unspecified), for which the TGI with SF-295 CNS, with OVCAR-5 ovarian, in the assay on PC-3 prostate, in the assay with MDA-N and with UACC-257 melanoma was above 100 µM throughout.

As for `O=C1CSC(c2cccc(Oc3ccccc3)c2)N1c1ccc(Cl)cc1` (stereo unspecified), the TGI was above 100 µM with SF-295 CNS; above 100 µM with OVCAR-5 ovarian; above 100 µM with PC-3 prostate; 63.6 µM in the assay on MDA-N; 46.5 µM in the assay on UACC-257 melanoma.

For `CC(=O)OCC12C(=O)C[C@@H](C)C3(CC(c4ccoc4)OC3=O)C1CCC(OC(C)=O)C21CO1` (stereo partly specified), the TGI in the assay with SF-295 CNS, in the assay with OVCAR-5 ovarian, in the assay on PC-3 prostate, in the assay with MDA-N and in the assay with UACC-257 melanoma was above 100 µM throughout.

`Nc1cc2[nH]c(=O)c(=O)[nH]c2cc1N`: the TGI with SF-295 CNS, with OVCAR-5 ovarian, in the assay on PC-3 prostate, in the assay on MDA-N and with UACC-257 melanoma was above 100 µM in each case.

For the compound `CON(C)C(=O)CNC(=O)OCC1c2ccccc2-c2ccccc21`, the TGI in the assay with SF-295 CNS, in the assay with OVCAR-5 ovarian, with PC-3 prostate, with MDA-N and in the assay with UACC-257 melanoma was above 100 µM each time.

For the compound `CC12C(=O)CC(CC1=O)C2(C)C`, the TGI in the assay on SF-295 CNS, in the assay on OVCAR-5 ovarian, with PC-3 prostate, with MDA-N and with UACC-257 melanoma was above 100 µM throughout.

Regarding `CC(C)=CCC/C(C)=C/C=C/C(C)=C/C=C/C(C)=C/C=C/C=C(C)/C=C/C=C(C)/C=C/[C@H]1C(C(C)(C)O)CC[C@]1(C)O` (stereo partly specified), the TGI is above 100 µM in the assay on SF-295 CNS; above 100 µM in the assay with OVCAR-5 ovarian; above 100 µM with PC-3 prostate; 81.6 µM with MDA-N; 59.2 µM in the assay with UACC-257 melanoma.

Turning to `CCOC(=O)N/N=C(/N)c1cccc([N+](=O)[O-])c1`, the TGI in the assay on SF-295 CNS, in the assay on OVCAR-5 ovarian, in the assay on PC-3 prostate, with MDA-N and in the assay on UACC-257 melanoma was above 100 µM in each case.

Turning to `COc1ccc2ccccc2c1/C=C/C(=O)c1ccccc1`, the TGI in the assay on SF-295 CNS was determined as 15.6 µM; with OVCAR-5 ovarian, 22 µM; with PC-3 prostate, 13.9 µM; in the assay with MDA-N, 13.4 µM; in the assay with UACC-257 melanoma, 16 µM.

Regarding `O=C(N/N=C\c1cccc2c([N+](=O)[O-])cccc12)Nc1ccccc1`, the TGI came to 32.5 µM in the assay with SF-295 CNS; 30.5 µM with OVCAR-5 ovarian; 32.7 µM in the assay with PC-3 prostate; 32.8 µM in the assay on MDA-N; 44.4 µM in the assay on UACC-257 melanoma.

For the compound `C(=Nc1ccc(-c2nc3ccccc3[nH]2)cc1)c1cccs1`, the TGI with SF-295 CNS, with OVCAR-5 ovarian, with PC-3 prostate, with MDA-N and with UACC-257 melanoma was above 100 µM throughout.

`CC(C)(C)OC(=O)NC(Cc1ccc(OCc2ccccc2)cn1)C(=O)N1CCCCC1` (stereo unspecified): the TGI in the assay with SF-295 CNS was above 100 µM; with OVCAR-5 ovarian, above 100 µM; with PC-3 prostate it was 55.2 µM; in the assay with MDA-N, above 100 µM; with UACC-257 melanoma, 47.3 µM.

Regarding `COC(CNC(=O)C(C)NC(=O)CCc1ccccc1)OC` (stereo unspecified), the TGI in the assay on SF-295 CNS, in the assay with OVCAR-5 ovarian, with PC-3 prostate, in the assay on MDA-N and with UACC-257 melanoma was above 100 µM each time.

As for `C[N+](C)(C)CC1CCCCCCCCCCC1=O` (stereo unspecified), the TGI with SF-295 CNS, with OVCAR-5 ovarian, with PC-3 prostate, in the assay on MDA-N and with UACC-257 melanoma was above 100 µM throughout.

Take `O=C1/C(=C/c2ccc([N+](=O)[O-])cc2)C(=O)N(c2ccccc2)C1c1ccccc1` (stereo unspecified): the TGI in the assay on SF-295 CNS, in the assay on OVCAR-5 ovarian, in the assay on PC-3 prostate, in the assay with MDA-N and in the assay on UACC-257 melanoma was above 10 µM throughout.

As to `NC(Cc1ccccc1)C(=O)N[C@H]1c2ccsc2/C(=N/O)[C@H]1O` (stereo partly specified), the TGI in the assay with SF-295 CNS, in the assay with OVCAR-5 ovarian, in the assay on PC-3 prostate, in the assay on MDA-N and with UACC-257 melanoma was above 100 µM each time.
